Experimental data reported in ChEMBL document CHEMBL1155957, “A novel peptide from alpha5 helix of Asterina pectinifera cyclin B conjugated to HIV-Tat(49-57) with cytotoxic and apoptotic effects against human cancer cells” (2008).
Active and inactive are the calls of the source. The rule behind the calls is not given here.

Legend:
[1] = system: HCT-116; test: Antiproliferative activity against human HCT116 cells at 30 uM for 24 hrs by MTT assay; type: functional
[2] = system: HCT-116; test: Antiproliferative activity against human HCT116 cells at 100 uM for 24 hrs by MTT assay; type: functional
[3] = system: EC9706; test: (§1) Antiproliferative activity against human EC9706 cells at 75 uM for 24 hrs by MTT assay; type: functional
[4] = system: EC9706; test: (§2) Antiproliferative activity against human EC9706 cells at 100 uM for 24 hrs by MTT assay; type: functional
[5] = Cell cycle arrest in human EC9706 cells assessed as accumulation in G2/M phase at 30 uM after 12 hrs; type: functional, cell-based
[6] = Cell cycle arrest in human EC9706 cells assessed as accumulation in G2/M phase at 30 uM after 18 hrs; type: functional, cell-based
[7] = system: HCT-116; test: Induction of apoptosis in human HCT116 cells assessed as morphological changes at 100 uM after 24 hrs; type: functional, cell-based
[8] = system: EC9706; test: Induction of apoptosis in human EC9706 cells assessed as morphological changes at 100 uM after 24 hrs; type: functional, cell-based
[9] = as §1; type: functional
[10] = as §2; type: functional
[11] = system: HCT-116; test: Cell cycle arrest in human HCT116 cells assessed as accumulation in G2/M phase at 30 uM after 12 hrs; type: functional, cell-based
[12] = system: HCT-116; test: Induction of apoptosis in human HCT116 cells assessed as increase in cell debris at 30 uM after 18 hrs; type: functional, cell-based

Compound	Activity [1]	Activity [2]	Activity [3]	Activity [4]	Activity [5]	Activity [6]	Activity [7]	Activity [8]	Activity [9] [%]	Activity [10] [%]	Activity [11]	Activity [12]
N=C(N)NCCC[C@H](NC(=O)[C@H](CCCNC(=N)N)NC(=O)[C@H](CCCNC(=N)N)NC(=O)[C@H](CCC(N)=O)NC(=O)[C@H](CCCNC(=N)N)NC(=O)[C@H](CCCNC(=N)N)NC(=O)[C@H](CCCCN)NC(=O)[C@H](CCCCN)NC(=O)[C@@H](N)CCCNC(=N)N)C(=O)O	inactive	inactive	inactive	inactive	inactive	inactive	inactive	inactive				
H-KAQIRAMECNIL-OH	inactive	inactive	inactive	inactive								
H-KAQIRAMECNILGRKKRRQRRR-OH	55%	16%			Active	Active	Active	Active	69	52	Active	Active
